Assay results from US20060069132A1, “Azolecarboxamide herbicides” (priority 2004, published 2006).

Assays:
blackgrass = experiment: Test C postemergence herbicide test; assay type: in vivo, Alopecurus myosuroides; conditions: for Blackgrass plant response rating: 500 g ai/ha
In short: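 Scoring by eye, 12–14 days post-treatment, greenhouse-held plants vs. controls; 0 no effect, 100 complete control. Sprayed at 1–4 leaves (2–18 cm); paddy barnyardgrass at 2 leaves, flooded.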

rice = experiment: Test C flooded paddy test; assay type: in vivo, Oryza sativa; conditions: for Plant response rating, Rice: 500 g ai/ha, visual rating after 12 to 14 days
In short: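 Plants were grown to the 1- to 4-leaf stage (2–18 cm) and then treated postemergence, or grown to the 2-leaf stage for the flooded paddy test. They were held in a greenhouse for 12 to 14 days and then scored by eye against controls, where 0 is no effect and 100 is complete control.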

ducksalad = experiment: Test C flooded paddy test; assay type: in vivo, Heteranthera limosa; conditions: for Plant response rating, Ducksalad: 500 g ai/ha, visual rating after 12 to 14 days
corn = experiment: Test C pre-/postemergence herbicide test; assay type: in vivo, Zea mays; conditions: preemergence
In short: (§1)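 Preemergence: seeds planted and treated with compound in non-phytotoxic solvent with surfactant; postemergence: plants at 2 to 18 cm (1- to 4-leaf stage) sprayed likewise. Kept in greenhouse 12 to 14 days, then visually rated against controls, 0 (no effect) to 100 (complete control).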

kochia = experiment: Test C pre-/postemergence herbicide test; assay type: in vivo, Kochia scoparia; conditions: preemergence
In short: as §1

lambsquarters = experiment: Test C pre-/postemergence herbicide test; assay type: in vivo, Chenopodium album; conditions: preemergence
In short: as §1

johnsongrass = experiment: Test C pre-/postemergence herbicide test; assay type: in vivo, Sorghum halepense; conditions: preemergence
In short: as §1

woolly cupgrass = experiment: Test C pre-/postemergence herbicide test; assay type: in vivo, Eriochloa villosa; conditions: preemergence
In short: as §1

large crabgrass [1] = experiment: Test C pre-/postemergence herbicide test; assay type: in vivo, Digitaria sanguinalis; conditions: preemergence
In short: as §1

barnyardgrass = experiment: Test A pre-/postemergence herbicide test; assay type: in vivo, Echinochloa crus-galli
In short: (§2)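 Sandy loam soil given preemergence directed spray; plants at 2 to 10 cm, one- to two-leaf stage, sprayed to runoff postemergence, compounds in non-phytotoxic solvent with surfactant. Injury rated visually versus untreated controls after about ten greenhouse days, 0 (no effect) to 100 (complete control); dash means not tested.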

large crabgrass [2] = experiment: Test A pre-/postemergence herbicide test; assay type: in vivo, Digitaria sanguinalis
In short: as §2

giant foxtail = experiment: Test A pre-/postemergence herbicide test; assay type: in vivo, Setaria faberi
In short: as §2

velvetleaf = experiment: Test A pre-/postemergence herbicide test; assay type: in vivo, Abutilon theophrasti
In short: as §2

[3] = Postemergence, 250 g ai/ha, scale 0 to 100, 0 no effect, 100 complete control
[4] = postemergence, 125 g ai/ha, scale 0 to 100
[5] = postemergence, 31 g ai/ha, scale 0 to 100
[6] = postemergence, 62 g ai/ha, scale 0 to 100
[7] = 125 g ai/ha, scale 0 to 100 (0 no effect, 100 complete control)
[8] = 250 g ai/ha, scale of 0 to 100, 0 is no effect, 100 is complete control
[9] = scale 0 to 100 (0 no effect, 100 complete control)
[10] = 125 g ai/ha, scale 0 (no effect) to 100 (complete control), visual, 12 to 14 days
[11] = 500 g ai/ha, scale 0 to 100 (0 no effect, 100 complete control), visual, 12 to 14 days
[12] = Postemergence, 500 g ai/ha, 0 to 100 scale, 0 no effect, 100 complete control
[13] = Postemergence, 2000 g ai/ha, 0 to 100 scale, 0 no effect, 100 complete control
[14] = Preemergence, 2000 g ai/ha, visual rating, 0 to 100 scale (0 no effect, 100 complete control)
[15] = preemergence, 500 g ai/ha, visual injury, 0 to 100 scale (0 no effect, 100 complete control)

CCOC(=O)c1ccc(F)c(NC(=O)c2cc(C3(C)CC3)nn2CC)c1 [Compound 296]
Plant response rating, Blackgrass (blackgrass; [3]): 75 | Plant response rating, Blackgrass (blackgrass; [4]): 65 | Plant response rating, Blackgrass (blackgrass; [5]): 45 | Plant response rating, Blackgrass (blackgrass; [6]): 60 | Rice plant response rating (rice; 62 g ai/ha, scale 0 to 100): 20 | Rice plant response rating (rice; [7]): 20 | Rice plant response rating (rice; [8]): 40 | Plant response rating, Rice (rice; [9]): 60 | Ducksalad plant response rating (ducksalad; 62 g ai/ha, scale 0 to 100): 0 | Ducksalad plant response rating (ducksalad; [7]): 0 | Ducksalad plant response rating (ducksalad; [8]): 40 | Plant response rating, Ducksalad (ducksalad; [9]): 70

CCn1nc(C2(C)CC2)cc1C(=O)Nc1cccc(C(=O)N2CC=CC2)c1 [Compound 304]
Plant response rating, Corn (corn; 62 g ai/ha, scale 0 to 100): 0 | Plant response rating, Corn (corn; [10]): 0 | Plant response rating, Corn (corn; 250 g ai/ha, scale 0-100): 15 | Plant response rating, Corn (corn; [11]): 30 | Blackgrass plant response rating (blackgrass; Postemergence, scale 0 to 100): 95 | Plant response rating, Blackgrass (blackgrass; [3]): 70 | Plant response rating, Blackgrass (blackgrass; [4]): 50 | Plant response rating, Blackgrass (blackgrass; [6]): 60 | Rice plant response rating (rice; 62 g ai/ha, scale 0 to 100): 45 | Rice plant response rating (rice; [7]): 60 | Rice plant response rating (rice; [8]): 70 | Plant response rating, Rice (rice; [9]): 75 | Ducksalad plant response rating (ducksalad; 62 g ai/ha, scale 0 to 100): 65 | Ducksalad plant response rating (ducksalad; [7]): 85 | Ducksalad plant response rating (ducksalad; [8]): 95 | Plant response rating, Ducksalad (ducksalad; [9]): 95 | Plant response rating, Kochia (kochia; [10]): 80 | Plant response rating, Kochia (kochia; 250 g ai/ha, scale 0-100): 85 | Plant response rating, Kochia (kochia; [11]): 100 | Plant response rating, Lambsquarters (lambsquarters; 62 g ai/ha, scale 0 to 100): 0 | Plant response rating, Lambsquarters (lambsquarters; [10]): 100 | Plant response rating, Lambsquarters (lambsquarters; 250 g ai/ha, scale 0-100): 100 | Plant response rating, Lambsquarters (lambsquarters; [11]): 100 | Plant response rating, Johnsongrass (johnsongrass; 62 g ai/ha, scale 0 to 100): 0 | Plant response rating, Johnsongrass (johnsongrass; [10]): 60 | Plant response rating, Johnsongrass (johnsongrass; 250 g ai/ha, scale 0-100): 70 | Plant response rating, Johnsongrass (johnsongrass; [11]): 80 | Plant response rating, Cupgrass, Woolly (woolly cupgrass; 62 g ai/ha, scale 0 to 100): 5 | Plant response rating, Cupgrass, Woolly (woolly cupgrass; [10]): 10 | Plant response rating, Cupgrass, Woolly (woolly cupgrass; 250 g ai/ha, scale 0-100): 60 | Plant response rating, Cupgrass, Woolly (woolly cupgrass; [11]): 80 | Plant response rating, Crabgrass, Large (large crabgrass [1]; 62 g ai/ha, scale 0 to 100): 35 | Plant response rating, Crabgrass, Large (large crabgrass [1]; [10]): 100 | Plant response rating, Crabgrass, Large (large crabgrass [1]; 250 g ai/ha, scale 0-100): 100 | Plant response rating, Crabgrass, Large (large crabgrass [1]; [11]): 100

C#CCNC(=O)c1cccc(NC(=O)c2nn(C(C)(C)C)nc2CC)c1 [Compound 380]
Plant response rating, Blackgrass (blackgrass; [3]): 55 | Plant response rating, Blackgrass (blackgrass; [4]): 45 | Plant response rating, Blackgrass (blackgrass; [5]): 40 | Plant response rating, Blackgrass (blackgrass; [6]): 40 | Rice plant response rating (rice; 62 g ai/ha, scale 0 to 100): 45 | Rice plant response rating (rice; [7]): 65 | Rice plant response rating (rice; [8]): 70 | Plant response rating, Rice (rice; [9]): 75 | Ducksalad plant response rating (ducksalad; 62 g ai/ha, scale 0 to 100): 25 | Ducksalad plant response rating (ducksalad; [7]): 50 | Ducksalad plant response rating (ducksalad; [8]): 75 | Plant response rating, Ducksalad (ducksalad; [9]): 85

C#CCOc1cccc(NC(=O)c2cc(C(C)(C)C)nn2CC)c1 [Compound 411]
Blackgrass plant response rating (blackgrass; Postemergence, scale 0 to 100): 70 | Plant response rating, Blackgrass (blackgrass; [3]): 65 | Plant response rating, Blackgrass (blackgrass; [4]): 65 | Plant response rating, Blackgrass (blackgrass; [6]): 50 | Rice plant response rating (rice; 62 g ai/ha, scale 0 to 100): 0 | Rice plant response rating (rice; [7]): 25 | Rice plant response rating (rice; [8]): 35 | Plant response rating, Rice (rice; [9]): 35 | Ducksalad plant response rating (ducksalad; 62 g ai/ha, scale 0 to 100): 25 | Ducksalad plant response rating (ducksalad; [7]): 50 | Ducksalad plant response rating (ducksalad; [8]): 70 | Plant response rating, Ducksalad (ducksalad; [9]): 80

C=CCOc1cccc(NC(=O)c2cc(C(C)(C)C)nn2CC)c1 [Compound 412]
Blackgrass plant response rating (blackgrass; Postemergence, scale 0 to 100): 65 | Plant response rating, Blackgrass (blackgrass; [3]): 65 | Plant response rating, Blackgrass (blackgrass; [4]): 45 | Plant response rating, Blackgrass (blackgrass; [6]): 45 | Rice plant response rating (rice; 62 g ai/ha, scale 0 to 100): 15 | Rice plant response rating (rice; [7]): 20 | Rice plant response rating (rice; [8]): 20 | Plant response rating, Rice (rice; [9]): 50 | Ducksalad plant response rating (ducksalad; 62 g ai/ha, scale 0 to 100): 0 | Ducksalad plant response rating (ducksalad; [7]): 30 | Ducksalad plant response rating (ducksalad; [8]): 60 | Plant response rating, Ducksalad (ducksalad; [9]): 90

CCc1nn(C(C)(C)C)nc1C(=O)Nc1cccc(C(=O)NC2CC2)c1 [Compound 417]
Plant response rating, Corn (corn; 62 g ai/ha, scale 0 to 100): 0 | Plant response rating (0 = no effect, 100 = complete control), Corn (corn; 125 g ai/ha): 0 | Plant response rating, Corn (corn; 250 g ai/ha, scale 0-100): 10 | Plant response rating, Corn (corn; [11]): 65 | Blackgrass plant response rating (blackgrass; Postemergence, scale 0 to 100): 60 | Plant response rating, Blackgrass (blackgrass; [3]): 60 | Plant response rating, Blackgrass (blackgrass; [4]): 50 | Plant response rating, Blackgrass (blackgrass; [6]): 35 | Barnyardgrass plant response rating (barnyardgrass; [12]): 65 | Plant response rating, Barnyardgrass (barnyardgrass; [13]): 80 | Barnyardgrass plant response rating (barnyardgrass; [14]): 85 | Barnyardgrass plant response rating (barnyardgrass; [15]): 60 | Crabgrass, Large plant response rating (large crabgrass [2]; [12]): 30 | Plant response rating, Crabgrass, Large (large crabgrass [2]; [13]): 85 | Crabgrass, Large plant response rating (large crabgrass [2]; [14]): 95 | Crabgrass, Large plant response rating (large crabgrass [2]; [15]): 75 | Plant response rating, Kochia (kochia; 62 g ai/ha, scale 0 to 100): 0 | Plant response rating (0 = no effect, 100 = complete control), Kochia (kochia; 125 g ai/ha): 85 | Plant response rating, Kochia (kochia; 250 g ai/ha, scale 0-100): 100 | Plant response rating, Kochia (kochia; [11]): 100 | Plant response rating, Lambsquarters (lambsquarters; 62 g ai/ha, scale 0 to 100): 95 | Plant response rating (0 = no effect, 100 = complete control), Lambsquarters (lambsquarters; 125 g ai/ha): 100 | Plant response rating, Lambsquarters (lambsquarters; 250 g ai/ha, scale 0-100): 100 | Plant response rating, Lambsquarters (lambsquarters; [11]): 100 | Plant response rating, Johnsongrass (johnsongrass; 62 g ai/ha, scale 0 to 100): 100 | Plant response rating (0 = no effect, 100 = complete control), Johnsongrass (johnsongrass; 125 g ai/ha): 100 | Plant response rating, Johnsongrass (johnsongrass; 250 g ai/ha, scale 0-100): 100 | Plant response rating, Johnsongrass (johnsongrass; [11]): 100 | Foxtail, Giant plant response rating (giant foxtail; [12]): 75 | Plant response rating, Foxtail, Giant (giant foxtail; [13]): 85 | Foxtail, Giant plant response rating (giant foxtail; [14]): 100 | Foxtail, Giant plant response rating (giant foxtail; [15]): 90 | Plant response rating, Cupgrass, Woolly (woolly cupgrass; 62 g ai/ha, scale 0 to 100): 0 | Plant response rating (0 = no effect, 100 = complete control), Cupgrass, Woolly (woolly cupgrass; 125 g ai/ha): 20 | Plant response rating, Cupgrass, Woolly (woolly cupgrass; 250 g ai/ha, scale 0-100): 65 | Plant response rating, Cupgrass, Woolly (woolly cupgrass; [11]): 85 | Velvetleaf plant response rating (velvetleaf; [12]): 60 | Plant response rating, Velvetleaf (velvetleaf; [13]): 90 | Velvetleaf plant response rating (velvetleaf; [14]): 70 | Velvetleaf plant response rating (velvetleaf; [15]): 55 | Plant response rating, Crabgrass, Large (large crabgrass [1]; 62 g ai/ha, scale 0 to 100): 100 | Plant response rating (0 = no effect, 100 = complete control), Crabgrass, Large (large crabgrass [1]; 125 g ai/ha): 100 | Plant response rating, Crabgrass, Large (large crabgrass [1]; 250 g ai/ha, scale 0-100): 100 | Plant response rating, Crabgrass, Large (large crabgrass [1]; [11]): 100
